Structures can show the parent of a compound that is named as a salt. Non-standard residues stand in square brackets, D forms with d. Residues, ends and D or L forms follow the SMILES beside them. Phe(4-NO2) = N[C@@H](Cc1ccc([N+](=O)[O-])cc1)C(=O)O
Assays:
rat = assay: Antidiarrhoeal activity in the rat (castor oil); type: in vivo; details: for ANTIDARRHOEA ED50 p.o. / ANTIDARRHOEA ED50 s.c.: castor oil 15 minutes after peptide
Description: (B) Antidiarrhoeal activity in the rat. In this procedure rats were starved for 24 hours, the peptide then administered either subcutaneously or orally followed after 15 minutes by 1 ml. castor oil per rat given orally.
(§1) From the data obtained the respective ED50 figures were calculated (i.e. the dose required to elicit the appropriate effect in 50% of the animals). N.T.: not tested.

mice [1] = assay: Analgesia in mice in the hot plate test; type: in vivo; details: i.c.v.
Description: (A) Analgesia in mice in the hot plate test (modification of the method of Eddy, N. B. et al., J. Pharm. Exp. Therap. (1953) 107, 385, the peptide being administered by intracerebroventricular injection).
as §1

guinea-pigs = assay: Anti-tussive testing, citric acid aerosol in guinea-pigs; type: in vivo; details: guinea-pig; for ANTITUSSIVE ED50 p.o.: 20% citric acid aerosol 30 minutes after compound
Description: J. Pharmacol., 39, (1970) 225.
(C) For anti-tussive testing, guinea-pigs are subjected to an aerosol containing 20% citric acid, 30 minutes after administration of compound (orally or subcutaneously). The number of coughs during a five minute exposure are counted and meaned for six animals per treatment. The method is that described by Boura, A. L. A., Green, A. F. and Saunders, I. A. Br. J. Pharmac., May 1970, Vol. 39, No. 1, page 225.
as §1

[2] = tested on: laboratory animals including rats and mice; assay: Induction of anaesthesia / abolition of the righting reflex in laboratory animals; details: laboratory animals such as mice, up to lethal doses
mice [3] = assay: Analgesia in mice in the writhing test; type: in vivo; details: mouse, p.o.
Source text: As a further example the compounds are effective in reducing acetic acid-induced writhing in mice when tested by a modification of the method of Henderson et. al., J. Pharm. Exp. Therap. 125 (1959), 237; the compounds being administered orally and this reduction in writhing is abolished by naloxone.
(D) Analgesia in mice in the writhing test (modification of the method of Henderson et. al. (J. Pharm. Exp. Therap., 125,(1959),237) the peptide being administered orally.
as §1

Row | Molecule | ANTIDARRHOEA ED50 p.o. (rat) | ANTIDARRHOEA ED50 s.c. (rat) | ANALGESIA: MOUSE HOT PLATE ED50 (mice [1]) | ANTITUSSIVE (ED50 column): activity at 10 p.o. (guinea-pigs; at 10 mg/kg p.o.) | Abolition of the righting reflex [2] | ANALGESIA: WRITHING ED50 (mice [3]) | ANTITUSSIVE ED50 p.o. (guinea-pigs) | ANTIDARRHOEA p.o. (ED50 column): activity at 10 (rat; at 10 mg/kg p.o.)
1 | CSCC[C@@H](NC(=O)[C@@H](N)Cc1ccc(O)cc1)C(=O)NCC(=O)N[C@@H](Cc1ccccc1)C(=O)N1CCC[C@@H]1C(=O)O [Example 3, H.Tyr.D-Met.Gly.Phe.D-Pro.OH HCl] (H-Y[dM]GF[dP]-OH) | 7 mg/kg | 2 mg/kg | 0.005 μg/mouse | None | – | – | – | –
2 | Tyr.D-Met.Gly.Phe(4NO2).homoPro.NH2 [Example 21] | 2 mg/kg | 0.03 mg/kg | 0.003 μg/mouse | – | – | – | – | –
3 | CN1CC[C@]23c4c5ccc(O)c4O[C@H]2[C@@H](O)C=C[C@H]3[C@H]1C5 [morphine] | – | – | – | – | does not abolish the righting reflex | – | – | –
4 | CSCC[C@@H](NC(=O)[C@@H](N)Cc1ccc(O)cc1)C(=O)NCC(=O)N[C@@H](Cc1ccc([N+](=O)[O-])cc1)C(=O)N1CCC[C@H]1C(N)=O [Example 1, H.Tyr.D-Met.Gly.Phe(4NO2).Pro.NH2] (H-Y[dM]G[Phe(4-NO2)]P-NH2) | 2 mg/kg | 0.05 mg/kg | 0.007 μg/mouse | – | – | 35 mg/kg | 0.7 mg/kg | –
5 | H.Tyr.D-Met.Gly.Phe(4Cl).Pro.NH2 [Example 9] | 10 mg/kg | 0.2 mg/kg | 0.005 μg/mouse | – | – | – | – | –
6 | H.Tyr.D-Met(O2).Gly.Phe(4NO2).Pro.NH2 [Example 7] | 0.3 mg/kg | 0.05 mg/kg | 0.00008 μg/mouse | – | – | – | 3 mg/kg | –
7 | CSCC[C@@H](NC(=O)[C@@H](N)Cc1ccc(O)cc1)C(=O)NCC(=O)N[C@@H](Cc1ccc([N+](=O)[O-])cc1)C(=O)N1CCC[C@H]1C(=O)O [Example 4, H.Tyr.D-Met.Gly.Phe(4NO2).Pro.OH HCl] (H-Y[dM]G[Phe(4-NO2)]P-OH) | – | 0.2 mg/kg | 0.07 μg/mouse | – | – | – | – | None

From patent publication US4343795A, “Biologically active amides” (priority 1977, dated 1982)
